What follows are molecules tested against T1, C-X-C chemokine receptor type 3 (Homo sapiens, UniProt P49682) (assay: Displacement of [125I]CXCL10 from human CXCR3 expressed in HEK293T cells). Details: not given.
T1 sequence (P49682 whole entry): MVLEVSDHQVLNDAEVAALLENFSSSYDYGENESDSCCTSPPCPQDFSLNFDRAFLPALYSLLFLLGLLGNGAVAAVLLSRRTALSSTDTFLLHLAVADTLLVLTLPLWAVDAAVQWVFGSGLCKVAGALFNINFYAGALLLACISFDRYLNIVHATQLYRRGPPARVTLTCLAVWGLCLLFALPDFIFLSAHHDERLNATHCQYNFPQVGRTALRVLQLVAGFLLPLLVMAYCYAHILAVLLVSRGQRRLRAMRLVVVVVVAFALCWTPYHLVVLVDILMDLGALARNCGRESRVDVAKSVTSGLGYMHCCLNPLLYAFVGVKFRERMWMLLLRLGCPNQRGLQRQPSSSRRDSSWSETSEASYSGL
Format: cell-based, HEK-293T

Compared with Fc1cc(Cl)ccc1CN1CCCC(NC2C3CC4CC(C3)CC2C4)C1 (stereo unspecified), Fc1cc(Cl)ccc1CN1CCC(NC2C3CC4CC(C3)CC2C4)CC1 (stereo unspecified) is 13-fold lower in Ki: 2 µM for the first, 0.158 µM for the second.

CC1(C)[C@@H]2CC[C@@]1(C)[C@@H](NC1CCN(Cc3ccc(Cl)cc3F)CC1)C2 (relative stereo; 60) and CC1(C)[C@@H]2CC[C@@]1(C)[C@H](NC1CCN(Cc3ccc(Cl)cc3F)CC1)C2 (relative stereo) are the same in Ki: 0.398 µM for the first, 0.398 µM for the second.

Compared with Fc1cc(Cl)ccc1CN1CCC(NC2C3CC4CC2CN(C4)C3)CC1 (stereo unspecified), Fc1cc(Cl)ccc1CN1CCC(NCC2C3CC4CC(C3)CC2C4)CC1 (stereo unspecified) is 7.9-fold lower in Ki: 7.94 µM for the first, 1 µM for the second. The second binds more tightly here.

Going from CC1(C)[C@@H]2CC[C@@]1(C)[C@H](NC1CCN(Cc3cccnc3)CC1)C2 (relative stereo) to CC1(C)[C@@H]2CC[C@@]1(C)[C@H](NC1CCN(Cc3ccccc3)CC1)C2 (relative stereo), the Ki falls from over 10 µM to 2.51 µM.

First: CC1(C)[C@@H]2CC[C@@]1(C)[C@H](NC1CCN(Cc3ccc(F)c(C(F)(F)F)c3)CC1)C2 (relative stereo)
Second: CC1(C)[C@@H]2CC[C@@]1(C)[C@H](NC1CCN(Cc3cc(F)cc(C(F)(F)F)c3)CC1)C2 (relative stereo)
The Ki of the first is 1.6-fold lower: 2.51 µM for the first, 3.98 µM for the second.

CCOC(=O)C1=C(NC2C3CC4CC(C3)CC2C4)CCN(Cc2ccc(Cl)cc2F)C1 (stereo unspecified) and CCOC(=O)C1CN(Cc2ccc(Cl)cc2F)CCC1NC1C2CC3CC(C2)CC1C3 (single isomer, unassigned) are within 1.5-fold of each other in Ki: 5.01 µM for the first, 3.98 µM for the second.

Going from CC1(C)C2CC[C@@]1(C)C(CNC1CCN(Cc3ccc(Cl)cc3F)CC1)C2 (mixture of isomers) to CC1(C)[C@@H]2CC[C@@]1(C)[C@@H](NC1CCN(Cc3ccc(Cl)cc3F)CC1)C2 (relative stereo; 62), the Ki falls from 2 µM to 0.631 µM (3.2-fold).

Going from Clc1ccc(CN2CCC(NC3C4CC5CC(C4)CC3C5)CC2)cc1 (stereo unspecified) to c1ccc(CN2CCC(NC3C4CC5CC(C4)CC3C5)CC2)cc1 (stereo unspecified), the Ki rises from 0.398 µM to 3.98 µM (10-fold). The first binds more tightly here.

CN(C1CCN(Cc2ccc(Cl)cc2F)CC1)[C@H]1C[C@H]2CC[C@]1(C)C2(C)C (relative stereo) and CN(C1CCN(Cc2ccc(Cl)cc2F)CC1)[C@@H]1C[C@H]2CC[C@]1(C)C2(C)C (relative stereo) are within 1.5-fold of each other in Ki: 1.26 µM for the first, 1.58 µM for the second.

Going from COC(=O)c1ccc(CN2CCC(N[C@@H]3C[C@H]4CC[C@]3(C)C4(C)C)CC2)cc1 to COc1ccc(CN2CCC(N[C@@H]3C[C@H]4CC[C@]3(C)C4(C)C)CC2)cc1 (relative stereo), the Ki falls from 3.16 µM to 2 µM (1.6-fold).

Going from COc1cccc(CN2CCC(N[C@@H]3C[C@H]4CC[C@]3(C)C4(C)C)CC2)c1 (relative stereo) to COc1ccc(CN2CCC(N[C@@H]3C[C@H]4CC[C@]3(C)C4(C)C)CC2)c(F)c1, the Ki falls from 7.94 µM to 1.58 µM (5-fold).

Fc1cc(Cl)ccc1CN1CCC(NC2CCCCC2)CC1 and Fc1cc(Cl)ccc1CN1CCC(NCC2CCCCC2)CC1 are within 1.5-fold of each other in Ki: 5.01 µM for the first, 3.98 µM for the second.

Compared with CC1(C)[C@@H]2CC[C@@]1(C)[C@H](NC1CCN(Cc3c(F)c(F)c(F)c(F)c3F)CC1)C2 (relative stereo), CC1(C)[C@@H]2CC[C@@]1(C)[C@H](NC1CCN(Cc3ccc(F)cc3F)CC1)C2 (relative stereo) is 4-fold higher in Ki: 0.501 µM for the first, 2 µM for the second. The first binds more tightly here.

First: CC1(C)C2CC=C(CNC3CCN(Cc4ccc(Cl)cc4F)CC3)C1C2 (stereo unspecified)
Second: Fc1cc(Cl)ccc1CN1CCC(NC/C2=C/CCCCCC2)CC1
The Ki of the first is 1.6-fold higher: 3.98 µM for the first, 2.51 µM for the second.

First: Fc1cc(Cl)ccc1CNC1CCN(C2C3CC4CC(C3)CC2C4)CC1 (stereo unspecified)
Second: Fc1cc(Cl)ccc1CN1CCCN(C2C3CC4CC(C3)CC2C4)CC1 (stereo unspecified)
The Ki of the first is 2.5-fold higher: 3.98 µM for the first, 1.58 µM for the second.

Going from CC(c1ccc(Cl)cc1F)N1CCC(NC2C3CC4CC(C3)CC2C4)CC1 (stereo unspecified) to O=C(Nc1ccc(Cl)cc1F)N1CCC(NC2C3CC4CC(C3)CC2C4)CC1 (stereo unspecified), the Ki rises from 5.01 µM to over 10 µM.

CC1(C)[C@@H]2CC[C@@]1(C)[C@H](NC1CCN(Cc3ccco3)CC1)C2 (relative stereo) and CC1(C)[C@@H]2CC[C@@]1(C)[C@H](NC1CCN(Cc3ccccn3)CC1)C2 (relative stereo) are within 1.5-fold of each other in Ki: 6.31 µM for the first, 7.94 µM for the second.

Going from Fc1cc(Cl)ccc1CN1CCC(N2CCc3ccccc3C2)CC1 to Fc1cc(Cl)ccc1CN1CCC(N2CCCC2)CC1, the Ki rises from 5.01 µM to over 10 µM. The first binds more tightly here.

Going from Fc1cc(Cl)ccc1CN1CCC(CNC2C3CC4CC(C3)CC2C4)CC1 (stereo unspecified) to CN(CC1C2CC3CC(C2)CC1C3)C1CCN(Cc2ccc(Cl)cc2F)CC1 (stereo unspecified), the Ki falls from 3.98 µM to 2.51 µM (1.6-fold). The second binds more tightly here.

First: CC1(C)[C@@H]2CC[C@@]1(C)[C@H](NC1CCN(Cc3ccc(N)cc3)CC1)C2 (relative stereo)
Second: CC1(C)[C@@H]2CC[C@@]1(C)[C@H](NC1CCN(Cc3ccc(Cl)cc3)CC1)C2 (relative stereo)
The Ki of the first is 13-fold higher: 6.31 µM for the first, 0.501 µM for the second.

Compared with CCNC(=O)c1cnc(N2CCN(C3CCN(Cc4ccc(Cl)cc4)CC3)[C@@H](CC)C2)c(Cl)c1, Clc1ccc(CN2CCC(NC34CC5CC(CC(C5)C3)C4)CC2)cc1 is 320-fold higher in Ki: 0.00316 µM for the first, 1 µM for the second.

Going from CC12CC3CC(C)(CC(C1)C3NC1CCN(Cc3ccc(Cl)cc3F)CC1)C2 (stereo unspecified) to CN1C2CCC1CC(NC1CCN(Cc3ccc(Cl)cc3F)CC1)C2 (mixture of isomers), the Ki rises from 0.501 µM to over 10 µM. The first binds more tightly here.

First: CC1(C)[C@@H]2CC[C@@]1(C)[C@H](NC1CCN(Cc3ccc(OC(F)(F)F)cc3)CC1)C2 (relative stereo)
Second: CN(C)c1ccc(CN2CCC(N[C@@H]3C[C@H]4CC[C@]3(C)C4(C)C)CC2)cc1 (relative stereo)
The Ki of the first is 5-fold lower: 0.794 µM for the first, 3.98 µM for the second.

Going from CC1(C)[C@@H]2CC[C@@]1(C)[C@H](NC1CCN(Cc3ccccc3F)CC1)C2 (relative stereo) to COc1ccccc1CN1CCC(N[C@@H]2C[C@H]3CC[C@]2(C)C3(C)C)CC1 (relative stereo), the Ki rises from 6.31 µM to 10 µM (1.6-fold).

Compared with CN(C1CCN(Cc2ccc(Cl)cc2F)CC1)C1C2CC3CC(C2)CC1C3 (stereo unspecified), CCOC(=O)C1CN(Cc2ccc(Cl)cc2F)CCC1NC1C2CC3CC(C2)CC1C3 (stereo in doubt; 32) is 4-fold higher in Ki: 1.26 µM for the first, 5.01 µM for the second.

Compared with Fc1cc(Cl)ccc1CN1CCC(NCC23CC4CC(CC(C4)C2)C3)CC1, Fc1cc(Cl)ccc1CN1CCC(NCCC(c2ccccc2)c2ccccc2)CC1 is higher in Ki: 0.501 µM for the first, over 100 µM for the second.

Compared with CC1(C)[C@@H]2CC[C@@]1(C)[C@H](NC1CCN(Cc3ccc(N=[N+]=[N-])cc3)CC1)C2 (relative stereo), CC(=O)Nc1ccc(CN2CCC(N[C@@H]3C[C@H]4CC[C@]3(C)C4(C)C)CC2)cc1 (relative stereo) is higher in Ki: 0.794 µM for the first, over 10 µM for the second.

These molecules were tested against T2, C-X-C chemokine receptor type 3 (Homo sapiens) (UniProt P49682) (assay: Antagonist activity at human CXCR3 expressed in HEK293T cells coexpressing Galphaqi5 assessed as inhibition of CXCL10-induced [3H]inositol phosphate levels by liquid scintillation counting). Details: HEK-293T.
T2 sequence (whole entry): T1 sequence (P49682 whole entry)
Format: functional, cell-based

Compared with CC1(C)[C@@H]2CC[C@@]1(C)[C@H](NC1CCN(Cc3ccc(Cl)cc3F)CC1)C2 (relative stereo), Fc1cc(Cl)ccc1CN1CCC(NC2C3CC4CC(C3)CC2C4)CC1 (stereo unspecified) is higher in pKb: 5.7 for the first, 6.1 for the second.

Reference: ChEMBL document CHEMBL1153993, “Exploring a pocket for polycycloaliphatic groups in the CXCR3 receptor with the aid of a modular synthetic strategy” (Bioorg Med Chem Lett, 2009)
